The text below walks through data of patent publication USRE40155E1, “Methods for treatment of benign and malignant tumors, including lymphomas, leukemias, and leiomyomas” (priority 1995, dated 2008).

Test [1] deals with human promyelocytic leukemia (HL-60) cells. Description: Inhibition of proliferation of HL-60 cells, Trypan Blue cell counts. It counts as cell-based. From the text:
Inhibition of proliferation by pirfenidone of human promyelocytic leukemia (HL-60) cells in vitro.
[…] Five ml of each pirfenidone concentration, and of the control were placed into a T25 tissue culture flask along with 1×10^5 cells. Every day for 4 days an aliquote from each flask was taken out, then stained with Trypan Blue, and counts were repeated three times on each aliquote.

In test [2] the test system is human T-cell leukemia (JURKAT) cells. Description: MTS assay of JURKAT cell proliferation. It counts as cell-based. To be noted: 900 mcg/ml, 72 hours. How it is done:
Inhibition of proliferation by pirfenidone of human T-cell leukemia (JURKAT) cells in vitro.
To determine the inhibitory effect of pirfenidone concentrations on human T-cell leukemia (JURKAT), a MTS assay was used which incorporates a tetrazolium dye that measures the cellular conversion of the dye into a formazan product by the activation of NADH-generating dehydrogenases found in metabolically active cells.
(§1) 1. 100 microl. of cells was seeded into 96 well plates at 1×10^5 cells/ml in media containing 100 mcg/ml, 300 mcg/ml and 900 mcg/ml of pirfenidone, as well as a pirfenidone-free media control.
(§2) 2. Cells were incubated at 37 degrees C., at 5.0% CO2 for 72 hours.
(§3) 3. After incubation a standard curve was made of 100 microliters of cells added to the plate at 5×10^5 cells/ml making 1:2 dilutions all the way down to a pre-set degree of dilution.
(§4) 4. 2.0 mls of the MTS solution was mixed with a 100 microliter of the PMS solution, and 20 microliters of this combined dye solution was added to each well and incubated at 37 degrees C., 5.0% CO2 for 3 hours.
(§5) 5. Subsequently the absorbance was read at 490 nm.
(Tetrazolium assays rely on reduction of a dye to a coloured formazan, in cell work by metabolically active cells.)

The subject of test [3] is human Burkitt's lymphoma (RAJI) cells. Description: MTS assay of RAJI cell proliferation. The format is cell-based. To be noted: 900 mcg/ml, 72 hours. How it is done: Inhibition of proliferation by pirfenidone of human Burkitt's lymphoma (RAJI) cells in vitro.
To determine the inhibitory effect of pirfenidone concentrations on Burkitt's lymphoma (RAJI) cells, a MTS assay was used which incorporates a tetrazolium dye that measures the cellular conversion of the dye into a formazan product by the activation of NADH-generating dehydrogenases found in metabolically active cells.
as §1, §2, §3, §4, §5

Test [4] concerns human leiomyoma cells. Nature of the test: Leiomyoma cell proliferation, cell counts and Trypan Blue viability on day 7. The format is cell-based. As to the method:
Leiomyoma tissues were obtained from several premenopausal women with symptomatic uterine fibroids at elective hysterectomy, and who were not receiving any hormonal or other drug therapy. The fibroid tissues were minced into 1-2 mm# explants and placed in suitable DMEM supplemented with 10% bovine serum. The fibroid tissue was digested for 14-18 hours at 37 degrees C. in an incubator. After centrifugation, a resulting cell pellet was resuspended in DMEM and then placed in culture flasks. The cultures were maintained at 37 degrees centigrade in a humidified atmosphere of 5% CO2 and 95% air.
Leiomyoma cells were plated in 100 mm dishes (100,000 each dish) and allowed to attach overnight in DMEM plus 10% fetal bovine serum until they reached 80-90% confluence.

The subject of test [5] is fresh human promyelocytic leukemia cells (AML3). To be noted: cited from earlier work.
In test [6] the test system is AML-3 patients. To be noted: oral, alone; cited from earlier work.

Take `Cc1ccc(=O)n(-c2ccccc2)c1` [pirfenidone]: the “toxic death of HL-60 cells” value in test [1] (900 micrograms/ml, after 3 and 4 days) is given as “without causing a toxic death of the cells”. For the same compound, in test [1] (1400 micrograms/ml), the “inhibition of proliferation and cell death of HL-60 cells” value is “deaths of almost all cells”. Also, in test [1] (Homo sapiens, HL-60, 900 micrograms/ml, after 3 and 4 days), the inhibition – broadly, the relative decrease from the control value, in per cent – at 900 µg/mL was found to be 63%. Further, in test [2], the “reduction in number of active JURKAT cells” value was found to be 75%. The “reduction in number of active RAJI cells” value in test [3] stood at 45%. Also, the “CELL COUNTS (DAY 7) LEIOMYOMA” value in test [4] (0.01 MG/ML) is given as 315,000; in test [4] (0.1 MG/ML), 205,000; in test [4] (0.3 MG/ML) it was 170,000; in test [4] (1.0 MG/ML), 69,000. Also, the “RECENT DEAD CELLS (DAY 7) LEIOMYOMA” value in test [4] (0.01 MG/ML) amounted to 8.0; in test [4] (0.1 MG/ML) it was 10.0; in test [4] (0.3 MG/ML) it was 6.0; in test [4] (1.0 MG/ML), 16.0. Besides, the “percentage of dead leiomyoma cells” value in test [4] (1000 micrograms/ml) is reported as 16%. In addition, the “effect on proliferation of leiomyoma cells” value in test [4] (graded concentrations in the culture media, 7 days (FIG. 4)) is listed as “significant inhibitory effect”.
On to `CC1=C(/C=C/C(C)=C/C=C/C(C)=C/C(=O)O)C(C)(C)CCC1` [All-trans-retinoic acid], for which the “induction of differentiation in vitro” value in test [5] is reported as “differentiate in vitro to mature functional gramulocytes”. Besides, the clinical response result in test [6] is reported as “complete remission”.
